How the values were obtained:
U251MG cells = experiment: Cell viability assay, cellular dehydrogenase activity (CCK-8); type: cell-based; conditions: Homo sapiens, U-251; 72 h at 37° C.; FIG. 1A
Experimental: U251MG cells were maintained at 37° C. and 5% CO2 in RPMI media supplemented with glutamax and containing 10% heat-inactivated fetal bovine serum and 1% penicillin/streptomycin (Life Sciences).
A cell counting kit (CCK-8 assay kit, Dojindo) and an ADP-Glo assay (Life Technologies) were used to quantitate the effects of test compounds on cell viability. U251MG cells were seeded into 96 well tissue culture plates and incubated for 16 h at 37° C. with 5% CO2. Increasing concentrations of test compounds were added to the wells from DMSO-containing stock solutions to a final DMSO concentration of 0.05% and incubated for 72 hr at 37° C. CCK-8 kit reagent or ADP-GLO reagent were then added to the wells and absorbance was measured at 450 nm (for the CCK assay) using a Synergy HT micro-titer plate reader (Biotek) or luminescence was measured (for the ADP-GLO assay) using a POLARstar Omega micro-titer plate reader (BMG).

[1] = tested on: EGFR levels in U251MG cells; experiment: Biomarker quantitation by ELISA, EGFR; type: cell-based; conditions: 16 uM, 48 h
Experimental: U251 cells were plated in 6 well format culture dishes overnight at 37° C. with 5% CO2 and then treated with increasing concentrations of test compounds for 48 h at 37° C. with 5% CO2. Quantification of total Akt1, EGFR, and Hsp70 in cell lysates was accomplished using ELISA kits (R&D Systems) according to the manufacturer's recommendations and utilizing a Synergy HT micro-titer plate reader (Biotek). Cell lysates were prepared as recommended in the kit procedure. Protein concentrations of lysates clarified using centrifugation were determined using a Bradford assay (Thermo Scientific), and the values were used to normalize the biomarker values.

[2] = tested on: caspase 3/7 activity in U251MG cells; experiment: Caspase activation assay (Caspase-3/7 luminescence); type: cell-based; conditions: 48 h
Experimental: U251MG cells were seeded, maintained, and treated with test compounds as described above for 48 h at 37° C. Quantification of total cellular Caspase-3 and 7 activity was accomplished using a Caspase-3/7 luminescence assay kit (Promega) according to the manufacturer's recommendations and analyzed with a POLARstar Omega micro-titer plate reader (BMG).

[3] = tested on: Mayo Clinic patient derived GBM tumor cells; experiment: Mayo Clinic patient derived GBM tumor cell proliferation; type: cell-based; conditions: 132 hours
Experimental: (§1) Short-term explant cultures from PDX models were seeded into 96-well Perfecta3D hanging drop plates to form a single spheroid in each well after 2 days. The spheroids were transferred to a round bottom 96 well plate by centrifugation and then incubated with graded concentrations of test compound (8 spheroids per compound concentration). Spheroid volumes were monitored every 6 hours over the course of 5 days using the IncuCyte system (Essen BioScience, MI, US) to provide a growth curve akin to a tumor regrowth assay.

[4] = tested on: Hsp90 client proteins (EGFR and Akt1) in Mayo Clinic GBM PDX cell lines; experiment: Cellular biomarker assays (EGFR, Akt1 ELISA) in Mayo Clinic GBM PDX cell lines; type: cell-based; conditions: 48 hours; three cell lines
[5] = tested on: Hsp90 client proteins (Akt1, ERK1) in HEI193; experiment: Cellular biomarker assays (Akt1, ERK1 ELISA) in HEI193; type: cell-based, human; conditions: 48 hour treatment
Experimental: Cellular biomarker assays: Cells were cultured in culture medium (RPMI-glutamax, 10% FCS, 100 units/ml penicillin, and 100 μg/ml streptomycin). Cells were passaged after lifting using 0.25% trypsin/EDTA, and 3×10^5 cells were seeded in each well of six well plates (total volume 2.5 mL/well). After the cells were cultured for 24 hours, increasing concentrations of Hsp90 inhibitor were added to wells in triplicate from DMSO-containing stock solutions and mixed by gently by stirring. Final DMSO concentration in all wells was 0.25%. The treated cells were then cultured for 48 hours prior to lysate preparation. The culture media was removed from wells, and the wells were washed twice with DPBS containing 1 mM CaCl2 and 0.5 mM MgCl2. […] The protein concentration in the cell lysates was determined using the BCA protein assay kit used according to the manufacturer's recommendations. […] Protein concentrations were determined using a micro-titer plate reader (Model # Synergy HT; BioTek Inc., Winooski, Vt.).
Akt1 and ERK1 levels in the cell lysates were measured using kits from R&D Systems used according to the manufacturer's recommendations. […] Akt1 and ERK1 levels were determined using a micro-titer plate reader (Model # Synergy HT; BioTek Inc., Winooski, Vt.) (FIGS. 5 and 8).

[6] = tested on: mitochondria isolated from HEI193 cells; experiment: Analysis of drug accumulation in the mitochondria; type: in vitro ADME, human; conditions: 20 uM
Experimental: Mitochondria (100 μg) isolated from MDA-MB-231 and […] tumor cell lines were incubated with 20 μM CAP01088 for 30 mins at 30° C. in mitochondrial incubation buffer (MIB: 0.2M sucrose, 10 mM Tris-MOPS, pH 7.4, 5 mM succinaye, 1 mM Pi, 2 μM rotenone, and 10 μM EGTA with modifications as needed). The mitochondria were chilled on ice and collected by centrifugation at 8000 g for 10 min. The supernatant was collected and the mitochondrial pellet was washed twice with MIB and dissolved in lysis buffer (acetonitrile/methanol, 3:1). The concentration of CAP01088 in supernatant and mitochondrial extract was analyzed using a Waters HPLC/Mass spectrometer (FIGS. 6B and 9B).

GBM10 = experiment: Cellular efficacy in Mayo Clinic GBM PDX cell line GBM10; type: cell-based
Experimental: as §1

Accumulation in isolated mitochondria compared to culture medium [6]	EC50 (GBM10)	SMILES	IC50 (U251MG cells)	Reduction of EGFR levels [1]	U251MG caspase 3/7 activity increase ([2]; 50 uM)	Lowest concentration at which an increase in caspase activity was observed ([2]; U251MG)	Effect on patient derived GBM tumor cell proliferation [3]	Effect on EGFR and Akt1 levels, GBM PDX cell lines [4]	Effect on Akt1 and ERK1 levels, HEI193 [5]
–	–	COc1c(C)cnc(CN(CCc2ccccn2)c2cc(Cl)nc(N)n2)c1C [Compound 1, 6-chloro-4-N-[(4-methoxy-3,5-dimethylpyridin-2yl)methyl]-4-N-[2-(pyridine-2-yl)ethyl]pyrimidine-2,4-amine]	1720 nM	71%	6.8 fold	1.6 µM	–	–	–
greater than 6 fold	280 nM	COc1c(C)cnc(CN(CC2(c3ccc(F)cc3)CCOCC2)c2cc(Cl)nc(N)n2)c1C [Compound A, 6-chloro-4-N-{[4-(4-fluorophenyl)oxan-4-yl]methyl}-4-N-[(4-methoxy-3,5-dimethylpyridin-2-yl)methyl]pyrimidine-2,4-diamine]	–	–	–	–	inhibit	suppression of Hsp90 client proteins	reduction of Hsp90 client proteins
